24 molecules from US20250188069A1, “COMPOUNDS AND METHODS FOR DEGRADING CASEIN KINASE 1 ALPHA” (PIN THERAPEUTICS, INC., priority 2022, published 2025) can be followed below.

Counter-ions that a name gives are not always drawn. Like-named read-outs stand apart in the source and are kept apart here.

In one experiment the target is CK1α (Homo sapiens, UniProt P48729+Q96SW2). As to the kind of experiment: CK1α degradation, flow cytometry in MV4-11 cells. Format: cell-based. Further details: CK1α levels were determined in MV-4-11 cells using Jess (Protein Simple); host or cells: MV-4-11. Conditions: % reduction of CK1α compared to DMSO, MV4-11 cells at 316 nM for 16 hours, read-out: CK1α degradation classification. As for the experimental part:
MV-4-11 cells were obtained from ATCC and grown in IMDM supplemented with 10% FBS. The cells were maintained at 37° C. under 5% CO2.
Compounds of the present disclosure were added to cells (final DMSO concentration of 0.5%) and incubated for 16 hours. CK1α level was determined in MV4-11 cells using flow cytometry (Luminex, Guava EasyCyte Plus). Briefly, cells were prepared with sequential 10% formalin and 70% methanol fixation. […] GuavaSoft Incyte software was used to analyse the flow cytometry data. Protein levels relative to DMSO are calculated for CK1α.
The efficacy of CK1α degradation of other part of compounds of the present disclosure was determined by treating MV4-11 cells at […] (Final DMSO concentration of 0.5%) for 16 hours. Protein levels relative to DMSO are calculated for CK1α.
Protein levels relative to DMSO are calculated for CK1α.
A general note: A flow cytometer gives signals particle by particle.

Another experiment relates to MV-4-11 cells. Briefly: AML cell viability assay (RealTime-Glo). Format: cell-based. Conditions: Homo sapiens, read-out: Cell viability classification.
[1] abbreviates: MV4-11, IC50 class, MV-4-11 cells, RealTime-Glo after 44 hrs of treatment (TABLE 3).
Where [2] appears, read: MV4-11, IC50 class, MV-4-11 cells, RealTime-Glo after 44 hrs of treatment (TABLE 5).

Sequence of CK1α (P48729 whole entry): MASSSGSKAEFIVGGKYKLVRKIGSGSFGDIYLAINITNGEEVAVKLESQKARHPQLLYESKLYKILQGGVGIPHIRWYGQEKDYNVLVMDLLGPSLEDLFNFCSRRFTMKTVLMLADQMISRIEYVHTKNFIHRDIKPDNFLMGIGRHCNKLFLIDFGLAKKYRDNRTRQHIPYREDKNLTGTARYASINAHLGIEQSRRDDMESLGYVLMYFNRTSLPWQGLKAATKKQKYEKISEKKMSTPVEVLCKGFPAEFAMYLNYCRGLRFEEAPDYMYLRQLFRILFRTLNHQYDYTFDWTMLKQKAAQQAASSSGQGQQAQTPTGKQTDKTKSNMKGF
Sequence of CK1α (Q96SW2 whole entry): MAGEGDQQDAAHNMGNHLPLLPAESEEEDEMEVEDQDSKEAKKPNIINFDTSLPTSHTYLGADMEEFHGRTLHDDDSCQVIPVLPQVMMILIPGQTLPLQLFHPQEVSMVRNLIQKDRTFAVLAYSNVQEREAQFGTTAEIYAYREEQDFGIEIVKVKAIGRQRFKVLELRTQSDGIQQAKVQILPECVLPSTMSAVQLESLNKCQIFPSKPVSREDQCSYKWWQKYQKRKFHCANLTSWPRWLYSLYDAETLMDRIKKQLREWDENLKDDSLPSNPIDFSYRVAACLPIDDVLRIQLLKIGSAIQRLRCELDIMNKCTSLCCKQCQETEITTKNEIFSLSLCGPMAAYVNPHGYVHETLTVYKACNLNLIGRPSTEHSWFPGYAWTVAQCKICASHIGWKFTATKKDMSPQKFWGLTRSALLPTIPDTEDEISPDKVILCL
Sequence of CK1α (Q16531 whole entry partner): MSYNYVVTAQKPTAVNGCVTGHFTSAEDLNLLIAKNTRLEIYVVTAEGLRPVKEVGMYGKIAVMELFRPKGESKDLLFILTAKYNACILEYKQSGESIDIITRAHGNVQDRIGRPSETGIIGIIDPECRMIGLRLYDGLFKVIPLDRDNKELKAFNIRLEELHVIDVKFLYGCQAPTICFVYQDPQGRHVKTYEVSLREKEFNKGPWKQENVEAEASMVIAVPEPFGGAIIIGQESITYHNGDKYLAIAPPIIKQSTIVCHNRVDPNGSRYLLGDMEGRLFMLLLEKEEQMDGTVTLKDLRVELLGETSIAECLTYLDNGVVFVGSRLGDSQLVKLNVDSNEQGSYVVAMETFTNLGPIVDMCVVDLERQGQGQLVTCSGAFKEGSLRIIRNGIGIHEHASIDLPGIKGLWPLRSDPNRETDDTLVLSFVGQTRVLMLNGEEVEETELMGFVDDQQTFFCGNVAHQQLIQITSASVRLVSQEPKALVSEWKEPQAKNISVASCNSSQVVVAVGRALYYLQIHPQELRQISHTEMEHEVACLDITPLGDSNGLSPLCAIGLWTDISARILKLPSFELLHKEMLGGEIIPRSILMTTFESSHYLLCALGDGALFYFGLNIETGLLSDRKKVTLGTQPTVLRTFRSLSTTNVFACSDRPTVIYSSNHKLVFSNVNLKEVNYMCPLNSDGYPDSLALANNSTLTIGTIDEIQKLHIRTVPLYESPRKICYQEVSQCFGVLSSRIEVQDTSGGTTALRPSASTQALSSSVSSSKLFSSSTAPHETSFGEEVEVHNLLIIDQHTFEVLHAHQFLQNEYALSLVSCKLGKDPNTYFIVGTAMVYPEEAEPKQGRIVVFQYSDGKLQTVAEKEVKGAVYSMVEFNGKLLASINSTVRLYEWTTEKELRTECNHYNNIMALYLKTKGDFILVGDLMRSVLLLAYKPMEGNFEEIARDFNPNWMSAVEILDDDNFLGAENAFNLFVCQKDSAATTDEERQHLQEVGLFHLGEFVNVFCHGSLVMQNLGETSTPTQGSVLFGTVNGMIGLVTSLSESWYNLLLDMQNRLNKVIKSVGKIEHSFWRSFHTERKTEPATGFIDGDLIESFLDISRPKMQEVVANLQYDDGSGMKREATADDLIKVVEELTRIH

With `C/C=C/CCN(CCCCN)c1cccc2c1CN(C1CCC(=O)NC1=O)C2=O` (stereo not drawn) [Compound 93, (E)-3-(4-((4-aminobutyl)(pent-3-en-1-yl)amino)-1-oxoisoindolin-2-yl)piperidine-2,6-dione hydrochloride], the Dmax at 0.316 µM at CK1α is more than 75%. Further, in the experiment with MV-4-11 cells (setting [1]), the IC50 is less than 100 nM.
`C/C=C\CCN(CCCCN)c1cccc2c1CN(C1CCC(=O)NC1=O)C2=O` (stereo not drawn) [Compound 94, (Z)-3-(4-((4-aminobutyl)(pent-3-en-1-yl)amino)-1-oxoisoindolin-2-yl)piperidine-2,6-dione]: the Dmax at 0.316 µM on CK1α is more than 75%. Also, the IC50 with MV-4-11 cells (setting [1]) was less than 100 nM.
For `CC#CCCN(CCCCN)c1cccc2c1CN(C1CCC(=O)NC1=O)C2=O` (stereo not drawn) [Compound 95, 3-(4-((4-aminobutyl)(pent-3-yn-1-yl)amino)-1-oxoisoindolin-2-yl)piperidine-2,6-dione, HCl], in that order: less than 50% and 100 to 1000 nM.
For `CCCCCN(CCCCNCCCC)c1cccc2c1CN(C1CCC(=O)NC1=O)C2=O` (stereo not drawn) [Compound 166, 3-(4-((4-(butylamino)butyl)(pentyl)amino)-1-oxoisoindolin-2-yl)piperidine-2,6-dione, HCl], at CK1α, the Dmax at 0.316 µM is more than 75%. In addition, in the experiment on MV-4-11 cells (MV4-11, 44 h), the IC50 lay in the range of 100 to 1000 nM.
In the case of `CCCCCN(CCCCNCCC(C)C)c1cccc2c1CN(C1CCC(=O)NC1=O)C2=O` (stereo not drawn) [Compound 167, 3-(4-((4-(isopentylamino)butyl)(pentyl)amino)-1-oxoisoindolin-2-yl)piperidine-2,6-dione. HCl], the Dmax at 0.316 µM on CK1α was more than 75%. Further, the IC50 in the experiment with MV-4-11 cells (setting [1]) is 100 to 1000 nM.
On to `CCCCCN(c1cccc2c1CN(C1CCC(=O)NC1=O)C2=O)[C@H]1CC[C@H](NC(C)=O)CC1` (stereo partly drawn) [Compound 168, N-((1r,4r)-4-((2-(2,6-dioxopiperidin-3-yl)-1-oxoisoindolin-4-yl)(pentyl)amino)cyclohexyl)acetamide], for which the Dmax at 0.316 µM at CK1α is more than 75%. For the same molecule, the IC50 with MV-4-11 cells (setting [1]) lay within 100 to 1000 nM.
Turning to `CCCCCN(c1cccc2c1CN(C1CCC(=O)NC1=O)C2=O)[C@H]1CC[C@H](NC)CC1` (stereo partly drawn) [Compound 169, 3-(4-(((1R,4R)-4-(methylamino)cyclohexyl)(pentyl)amino)-1-oxoisoindolin-2-yl)piperidine-2,6-dione hydrochloride], at CK1α, the Dmax at 0.316 µM was more than 75%. In the experiment on MV-4-11 cells (MV4-11, 44 h), the IC50 was less than 100 nM.
In the case of `CC(C)(C)CCN(CCCCN)c1cccc2c1CN(C1CCC(=O)NC1=O)C2=O` (stereo not drawn) [Compound 223, 3-(4-((4-aminobutyl)(3,3-dimethylbutyl)amino)-1-oxoisoindolin-2-yl)piperidine-2,6-dione], the Dmax at 0.316 µM on CK1α is more than 75%. For the same molecule, in the experiment with MV-4-11 cells (setting [1]), the IC50 was less than 100 nM.
Regarding `N[C@H]1CC[C@H](N(CC2CC2)c2cccc3c2CN(C2CCC(=O)NC2=O)C3=O)CC1` (stereo partly drawn) [Compound 235, 3-(4-(((1r,4r)-4-aminocyclohexyl)(cyclopropylmethyl)amino)-1-oxoisoindolin-2-yl)piperidine-2,6-dione hydrochloride], on CK1α, the Dmax at 0.316 µM was more than 75%. For the same molecule, in the experiment with MV-4-11 cells (setting [1]), the IC50 is less than 100 nM.
For `CC(C)CN(c1cccc2c1CN(C1CCC(=O)NC1=O)C2=O)[C@H]1CC[C@H](N)CC1` (stereo partly drawn) [Compound 236, 3-(4-(((1r,4r)-4-aminocyclohexyl)(isobutyl)amino)-1-oxoisoindolin-2-yl)piperidine-2,6-dione. HCl], the Dmax at 0.316 µM at CK1α is more than 75%. For the same molecule, the IC50 with MV-4-11 cells (setting [1]) lay in the range of 100 to 1000 nM.
`N[C@H]1CC[C@H](N(CCC2CC2)c2cccc3c2CN(C2CCC(=O)NC2=O)C3=O)CC1` (stereo partly drawn) [Compound 237, 3-(4-(((1r,4r)-4-aminocyclohexyl)(2-cyclopropylethyl)amino)-1-oxoisoindolin-2-yl)piperidine-2,6-dione, HCl]: at CK1α, the Dmax at 0.316 µM was more than 75%. For the same molecule, the IC50 in the experiment on MV-4-11 cells (setting [1]) was less than 100 nM.
As for `CC(C)CCN(c1cccc2c1CN(C1CCC(=O)NC1=O)C2=O)[C@H]1CC[C@H](N)CC1` (stereo partly drawn) [Compound 238, 3-(4-(((1r,4r)-4-aminocyclohexyl)(isopentyl)amino)-1-oxoisoindolin-2-yl)piperidine-2,6-dione hydrochloride], the Dmax at 0.316 µM on CK1α is more than 75%. The IC50 in the experiment with MV-4-11 cells (setting [1]) was less than 100 nM.
Regarding `O=C1CCC(N2Cc3c(cccc3N(CCC3CC3)C3CCC4(CC3)COCCN4)C2=O)C(=O)N1` (stereo not drawn) [Compound 679, 3-(4-((2-cyclopropylethyl)(4-oxa-1-azaspiro[5.5]undecan-9-yl)amino)-1-oxoisoindolin-2-yl)piperidine-2,6-dione], the IC50 in the experiment with MV-4-11 cells (setting [2]) lay in the range of 100 to 1000 nM.
On to `CN(CCC(F)F)[C@H]1CC[C@@H](N(CCC2CC2)c2cccc3c2CN(C2CCC(=O)NC2=O)C3=O)CC1` (stereo partly drawn) [Compound 683A, 3-(4-((2-cyclopropylethyl)((1s,4s)-4-((3,3-difluoropropyl)(methyl)amino)cyclohexyl)amino)-1-oxoisoindolin-2-yl)piperidine-2,6-dione bis(2,2,2-trifluoroacetate)], for which the IC50 in the experiment on MV-4-11 cells (setting [2]) fell in the range of 100 to 1000 nM.
On the same count and under the same terms, the result for `O=C1CCC(N2Cc3c(cccc3N(CCC3CC3)[C@H]3CC[C@H](CNCCC(F)(F)F)CC3)C2=O)C(=O)N1` (stereo partly drawn) [Compound 708, 3-(4-((2-cyclopropylethyl)((1r,4r)-4-(((3,3,3-trifluoropropyl)amino)methyl)cyclohexyl)amino)-1-oxoisoindolin-2-yl)piperidine-2,6-dione] reads 100 to 1000 nM; that for `O=C1CCC(N2Cc3c(cccc3N(CCC3CC3)[C@H]3CC[C@@H](CNCCC(F)(F)F)CC3)C2=O)C(=O)N1` (stereo partly drawn) [Compound 708A, 3-(4-((2-cyclopropylethyl)((1s,4s)-4-(((3,3,3-trifluoropropyl)amino)methyl)cyclohexyl)amino)-1-oxoisoindolin-2-yl)piperidine-2,6-dione], less than 100 nM; that for `O=C1CCC(N2Cc3c(cccc3N(CCC3CC3)[C@H]3CC[C@H](N4CCC5(C4)CC5(F)F)CC3)C2=O)C(=O)N1` (stereo partly drawn) [Compound 711, 3-(4-((2-cyclopropylethyl)((1r,4r)-4-(1,1-difluoro-5-azaspiro[2.4]heptan-5-yl)cyclohexyl)amino)-1-oxoisoindolin-2-yl)piperidine-2,6-dione 2,2,2-trifluoroacetate], 100 to 1000 nM.
The same measure, in the same setting: the result for `O=C1CCC(N2Cc3c(cccc3N(CCC3CC3)[C@H]3CC[C@@H](N4CCC5(C4)CC5(F)F)CC3)C2=O)C(=O)N1` (stereo partly drawn) [Compound 711A, 3-(4-((2-cyclopropylethyl)((1s,4s)-4-(1,1-difluoro-5-azaspiro[2.4]heptan-5-yl)cyclohexyl)amino)-1-oxoisoindolin-2-yl)piperidine-2,6-dione 2,2,2-trifluoroacetate] reads more than 1000 nM; that for `O=C1CCC(N2Cc3c(cccc3N(CCC3CC3)[C@H]3CC[C@H](N4CC[C@H](C(F)(F)F)C4)CC3)C2=O)C(=O)N1` (stereo partly drawn) [Compound 712, 3-(4-((2-cyclopropylethyl)((1S,4r)-4-((S)-3-(trifluoromethyl)pyrrolidin-1-yl)cyclohexyl)amino)-1-oxoisoindolin-2-yl)piperidine-2,6-dione 2,2,2-trifluoroacetate], 100 to 1000 nM.
Same read-out and setting: the result for `O=C1CCC(N2Cc3c(cccc3N(CCC3CC3)[C@H]3CC[C@@H](N4CC[C@H](C(F)(F)F)C4)CC3)C2=O)C(=O)N1` (stereo partly drawn) [Compound 712A, 3-(4-((2-cyclopropylethyl)((1R,4s)-4-((S)-3-(trifluoromethyl)pyrrolidin-1-yl)cyclohexyl)amino)-1-oxoisoindolin-2-yl)piperidine-2,6-dione 2,2,2-trifluoroacetate] reads more than 1000 nM; that for `O=C1CCC(N2Cc3c(cccc3N(CCC3CC3)[C@H]3CC[C@H](N4CC[C@@H](C(F)(F)F)C4)CC3)C2=O)C(=O)N1` (stereo partly drawn) [Compound 713, 3-(4-((2-cyclopropylethyl)((1R,4r)-4-((R)-3-(trifluoromethyl)pyrrolidin-1-yl)cyclohexyl)amino)-1-oxoisoindolin-2-yl)piperidine-2,6-dione bis(2,2,2-trifluoroacetate)], 100 to 1000 nM.
As for `O=C1CCC(N2Cc3c(cccc3N(CCC3CC3)[C@H]3CC[C@@H](N4CC[C@@H](C(F)(F)F)C4)CC3)C2=O)C(=O)N1` (stereo partly drawn) [Compound 713A, 3-(4-((2-cyclopropylethyl)((1S,4s)-4-((R)-3-(trifluoromethyl)pyrrolidin-1-yl)cyclohexyl)amino)-1-oxoisoindolin-2-yl)piperidine-2,6-dione bis(2,2,2-trifluoroacetate)], the IC50 in the experiment with MV-4-11 cells (setting [2]) is more than 1000 nM.
Same read-out and setting: the result for `CN1CCC(CN(CCC2CC2)c2cccc3c2CN(C2CCC(=O)NC2=O)C3=O)CC1` (stereo not drawn) [Compound 714, 3-(4-((2-cyclopropylethyl)((1-methylpiperidin-4-yl)methyl)amino)-1-oxoisoindolin-2-yl)piperidine-2,6-dione] reads more than 1000 nM; that for `O=C1CCC(N2Cc3c(cccc3N(CCC3CC3)[C@H]3CC[C@@H](N4CCC(F)(F)CC4)CC3)C2=O)C(=O)N1` (stereo partly drawn) [Compound 716A, 3-(4-((2-cyclopropylethyl)((1s,4s)-4-(4,4-difluoropiperidin-1-yl)cyclohexyl)amino)-1-oxoisoindolin-2-yl)piperidine-2,6-dione tris(2,2,2-trifluoroacetate)], more than 1000 nM.
